We go through one compound from paper PMC9072246 (Acta Pharmaceutica Sinica. B, 2021).

Each structure is given as a SMILES string. Counter-ions that a name gives are not always drawn.

The nature of series [1]: Drug absorption in rat small intestine. The class given is in vivo. The conditions noted are these: SD rats, intragastric 5 mg/kg DOX equivalent, 2 h, CLSM.
Series [2] in a line: In vivo pharmacokinetic after oral administration. Also on record: species or system SD rats.
The nature of series [3]: In vitro drug release by dialysis method. The following applies: pH 7.4 PBS, after 3 h. The class given is physicochemical.

For the compound `COc1cccc2c1C(=O)c1c(O)c3c(c(O)c1C2=O)C[C@@](O)(C(=O)CO)C[C@@H]3O[C@H]1C[C@H](N)[C@H](O)[C@H](C)O1` [DOX, doxorubicin hydrochloride], the “DOX fluorescence signal in small intestine tissue” value in series [1] is “almost no red fluorescence signal”. The “Frel, relative bioavailability” value in series [2] (SD rats, oral, 30 mg/kg DOX equivalent, relative to DOX) is on record as 100%. In addition, in series [2] (SD, rat, plasma, po, 30 mg/kg), the AUC (usually the area under the concentration-time curve, a measure of exposure) worked out at 4000 ± 20 ng·h/mL; the Cmax (as a rule, the peak of the concentration-time curve) came to 160 ± 10 ng/mL; the mean residence time (MRT) – broadly, a mean duration of stay, worked out from the concentration-time curve – was determined as 24.6 ± 0.34 h; the Tmax (commonly the time at which the peak concentration occurs) came to 1 h. In addition, in series [2] (SD, rat, plasma, po, 30 mg/kg), the concentration at 1 h was 160 ng/mL, the concentration at 8 h was determined as 130 ng/mL and the half-life (usually the time needed for the level to fall by half in the phase considered) is 12.6 ± 0.58 h. For the same compound, the “cumulative release amount of DOX” value in series [3] is recorded as 90%.
